Drawing on ChEMBL document CHEMBL4251620, “Biological evaluation of indolizine-chalcone hybrids as new anticancer agents” (Eur J Med Chem, 2018), this text covers IC50, Activity and viability for 23 compounds.

Test [1] concerns U-937. The experiment in a line: Cytotoxicity activity against human U937 cells assessed as reduction in cell viability after 48 hrs by CCK-8 assay. Type of test: functional, cell-based. The note with it: U-937, 48 h. On the technique in general: Tetrazolium dyes change colour on reduction, which living cells bring about.
Test [2] has as its system U-937. The experiment in a line: Induction of apoptosis in human U937 cells assessed as increase in caspase-3/7 activity at 3 uM after 6 hrs. Type of test: functional, cell-based.
The subject of test [3] is U-937. The experiment in a line: Cytotoxicity activity against human U937 cells assessed as cell viability at 1 uM after 48 hrs by CCK-8 assay. The note with it: U-937, 48 h, read-out: Activity. Type of test: functional.
Test [4] relates to U-937. The experiment in a line: Induction of apoptosis in human U937 cells assessed as viable cells at 3 uM after 48 hrs by muse Annexin V/dead cell reagent staining-based flow cytometric analysis (reference value: 97.07%). It counts as functional. The conditions noted are these: U-937, 48 h, read-out: Activity. Background: In flow cytometry, cells or beads pass a laser one at a time.

Test [5] concerns U-937. The experiment in a line: Induction of apoptosis in human U937 cells assessed as early apoptotic cells at 3 uM after 48 hrs by muse Annexin V/dead cell reagent staining-based flow cytometric analysis (reference value: 1.87%). Type of test: functional.
Test [6] deals with U-937. The experiment in a line: Induction of apoptosis in human U937 cells assessed as late apoptotic cells at 3 uM after 48 hrs by muse Annexin V/dead cell reagent staining-based flow cytometric analysis (reference value: 1%). Type of test: functional.
Test [7] has as its system U-937. The experiment in a line: Induction of apoptosis in human U937 cells assessed as necrotic cells at 3 uM after 48 hrs by muse Annexin V/dead cell reagent staining-based flow cytometric analysis (reference value: 0.06%). It counts as functional.
The test system of test [8] is U-937. The experiment in a line: Induction of apoptosis in human U937 cells assessed as viable cells at 10 uM after 48 hrs by muse Annexin V/dead cell reagent staining-based flow cytometric analysis (reference value: 97.07%). The note with it: U-937, 48 h, read-out: Activity. It counts as functional.
Test [9] has as its system U-937. The experiment in a line: Induction of apoptosis in human U937 cells assessed as early apoptotic cells at 10 uM after 48 hrs by muse Annexin V/dead cell reagent staining-based flow cytometric analysis (reference value: 1.87%). It counts as functional.
Test [10] has as its system U-937. The experiment in a line: Induction of apoptosis in human U937 cells assessed as late apoptotic cells at 10 uM after 48 hrs by muse Annexin V/dead cell reagent staining-based flow cytometric analysis (reference value: 1%). It counts as functional.
Test [11] has as its system U-937. The experiment in a line: Induction of apoptosis in human U937 cells assessed as necrotic cells at 10 uM after 48 hrs by muse Annexin V/dead cell reagent staining-based flow cytometric analysis (reference value: 0.06%). It counts as functional.
Test [12] relates to Raji. The experiment in a line: Cytotoxicity against human Raji cells assessed as reduction in cell viability after 48 hrs by CCK-8 assay. It counts as functional, cell-based.
The subject of test [13] is JeKo-1. The experiment in a line: Cytotoxicity activity against human JeKo1 cells assessed as reduction in cell viability after 48 hrs by CCK-8 assay. Type of test: functional, cell-based. The conditions noted are these: JeKo-1, 48 h.
Test [14] concerns U-937. The experiment in a line: Induction of apoptosis in human U937 cells at 10 uM after 48 hrs by muse Annexin V/dead cell reagent staining-based flow cytometric analysis (reference value: 2.95%). It counts as functional.
Test [15] relates to Raji. The experiment in a line: Induction of apoptosis in human Raji cells at 10 uM after 48 hrs by muse Annexin V/dead cell reagent staining-based flow cytometric analysis (reference value: 9.58%). Type of test: functional.
Test [16] deals with JeKo-1. The experiment in a line: Induction of apoptosis in human JeKo1 cells at 10 uM after 48 hrs by muse Annexin V/dead cell reagent staining-based flow cytometric analysis (reference value: 5.21%). It counts as functional.
The test system of test [17] is U-937. The experiment in a line: Cytotoxicity activity against human U937 cells assessed as reduction in cell viability at 1 uM after 48 hrs by CCK-8 assay. Type of test: functional, cell-based.

The source made the active and inactive calls. No cut-off for these calls is given here.

As to `Cc1c(C(=O)/C=C/c2ccc(Br)cc2)cc2cccn2c1C(=O)c1ccccc1`, the IC50 in the test with U-937 [1] amounted to 1.38 µM. For the same compound, the result in the test with U-937 [2] was Active. Further, the viability at 1 µM in the test with U-937 [3] is less than 80%. Besides, in the test with U-937 [4], the viability at 3 µM was found to be 25.7%. The Activity in the test with U-937 [5] worked out at 31.36%; with U-937 [6] it was 42.16%; with U-937 [7], 0.77%; in the test with U-937 [9] it was 14.54%; in the test with U-937 [10], 76.56%; in the test on U-937 [11], 0.59%. Moreover, the viability at 10 µM in the test on U-937 [8] is 8.31%.

Turning to `COc1cccc2c1C(=O)c1c(O)c3c(c(O)c1C2=O)C[C@@](O)(C(=O)CO)C[C@@H]3O[C@H]1C[C@H](N)[C@H](O)[C@H](C)O1` [DOXORUBICIN], the results for the IC50 in the test on U-937 [1], with Raji [12] and with JeKo-1 [13] were 0.28 µM, 0.17 µM and 0.18 µM, respectively. For the same compound, the Activity was determined as 74.66% with U-937 [14], 95.35% with Raji [15] and 87.92% in the test with JeKo-1 [16].

As to `Cc1ccc(/C=C/C(=O)c2cc3cccn3c(C(=O)c3ccccc3)c2C)cc1`, the viability at 1 µM in the test on U-937 [3] is greater than 80%.

On to `Cc1c(C(=O)/C=C/c2cccc(Cl)c2)cc2cccn2c1C(=O)c1ccccc1`, for which, in the test on U-937 [1], the IC50 turned out to be 1.28 µM. The result with U-937 [17] and with U-937 [2] was Active. Also, the viability at 1 µM in the test on U-937 [3] was less than 80%. The viability at 3 µM in the test on U-937 [4] is 15.8%. Moreover, the Activity in the test with U-937 [5] was found to be 29.36%; with U-937 [6] it was 54.29%; in the test on U-937 [7] it was 0.55%; with U-937 [9], 5.94%; in the test with U-937 [10], 85.99%; with U-937 [11] it was 0.24%. For the same compound, in the test with U-937 [8], the viability at 10 µM turned out to be 7.84%.

Take `Cc1c(C(=O)/C=C/c2cccc(F)c2)cc2cccn2c1C(=O)c1ccccc1`: the result in the test with U-937 [17] was Active. Besides, the viability at 1 µM with U-937 [3] was greater than 80%.

For `COc1cc(/C=C/C(=O)c2cc3cccn3c(C(=O)c3ccccc3)c2C)cc(OC)c1OC`, the half-inhibitory concentration (IC50) in the test with U-937 [1] amounted to 5.95 µM.

In the case of `COc1cccc(/C=C/C(=O)c2cc3cccn3c(C(=O)c3ccccc3)c2C)c1`, in the test with U-937 [3], the viability at 1 µM was greater than 80%.

In the case of `Cc1c(C(=O)/C=C/c2ccc(Br)o2)cc2cccn2c1C(=O)c1ccccc1`, in the test on U-937 [3], the viability at 1 µM is greater than 80%.

For the compound `Cc1c(C(=O)/C=C/c2ccc(Cl)cc2)cc2cccn2c1C(=O)c1ccccc1`, the result in the test on U-937 [17] was Active. For the same compound, the viability at 1 µM in the test on U-937 [3] was greater than 80%.

Take `COc1ccc(C(=O)c2c(C)c(C(=O)/C=C/c3cc(OC)cc(OC)c3)cc3cccn23)cc1`: the 50% inhibitory concentration (IC50) with U-937 [1] turned out to be 6.56 µM.

Regarding `Cc1c(C(=O)/C=C/c2ccc3c(c2)OCO3)cc2cccn2c1C(=O)c1ccccc1`, the viability at 1 µM in the test with U-937 [3] is greater than 80%.

`COc1cc(/C=C2\CCc3c(cc4cccn4c3C(=O)c3ccccc3)C2=O)cc(OC)c1`: the half-maximal inhibitory concentration (IC50) in the test on U-937 [1] amounted to 9.46 µM.

As to `COc1cc(/C=C/C(=O)c2cc3cccn3c(C(=O)c3ccccc3)c2C)cc(OC)c1`, the 50% inhibitory concentration (IC50) in the test on U-937 [1] worked out at 1.12 µM; in the test on Raji [12] it was 1.99 µM; with JeKo-1 [13], 1.3 µM. For the same compound, the outcome in the test with U-937 [2] was Active. Moreover, the viability at 1 µM in the test on U-937 [3] is less than 80%. The viability at 3 µM in the test with U-937 [4] was 14.2%. The Activity in the test with U-937 [5] is listed as 39.59%; in the test with U-937 [6], 45.57%; in the test with U-937 [7] it was 0.62%; with U-937 [9], 8.22%; with U-937 [10] it was 88.41%; in the test with U-937 [11] it was 0%. The Activity is 51.26% in the test on U-937 [14], 33.78% in the test on Raji [15] and 46.27% in the test on JeKo-1 [16]. In addition, in the test with U-937 [8], the viability at 10 µM worked out at 3.36%.

Regarding `Cc1c(C(=O)/C=C/c2ccc([N+](=O)[O-])cc2)cc2cccn2c1C(=O)c1ccccc1`, in the test with U-937 [1], the half-inhibitory concentration (IC50) came to 1.38 µM. For the same compound, the outcome in the test on U-937 [2] was Active. For the same compound, the viability at 1 µM in the test on U-937 [3] was less than 80%. Further, the viability at 3 µM in the test on U-937 [4] came out at 26.4%. Moreover, the Activity in the test with U-937 [5] was 24.87%; in the test on U-937 [6] it was 47.12%; in the test with U-937 [7] it was 1.57%; in the test with U-937 [9], 16.34%; with U-937 [10] it was 68.63%; in the test with U-937 [11], 1.31%. For the same compound, in the test on U-937 [8], the viability at 10 µM was determined as 13.7%.

In the case of `Cc1c(C(=O)/C=C/c2ccccc2)cc2cccn2c1C(=O)c1ccccc1`, the viability at 1 µM in the test with U-937 [3] is greater than 80%.

Take `Cc1c(C(=O)/C=C/c2ccc3ccccc3c2)cc2cccn2c1C(=O)c1ccccc1`: the viability at 1 µM with U-937 [3] is greater than 80%.

As for `COc1ccc(/C=C/C(=O)c2cc3cccn3c(C(=O)c3ccccc3)c2C)cc1OC`, the viability at 1 µM with U-937 [3] was greater than 80%.

For the compound `Cc1c(C(=O)/C=C/c2ccncc2)cc2cccn2c1C(=O)c1ccccc1`, the IC50 in the test with U-937 [1] was 1.37 µM. The result in the test with U-937 [2] was Active. Further, the viability at 1 µM in the test with U-937 [3] is less than 80%. Besides, the viability at 3 µM in the test on U-937 [4] amounted to 21.4%. The Activity stood at 30.03% with U-937 [5]; 47.68% in the test on U-937 [6]; 0.93% in the test with U-937 [7]; 6.21% in the test on U-937 [9]; 83.05% in the test with U-937 [10]; 0% in the test with U-937 [11]. Besides, the viability at 10 µM in the test with U-937 [8] was 10.7%.

With `COc1cc(/C=C/C(=O)c2cc3cccn3c(C(=O)c3ccco3)c2C)cc(OC)c1`, the half-inhibitory concentration (IC50) in the test with U-937 [1] stood at 7.53 µM.

For `COc1ccccc1/C=C/C(=O)c1cc2cccn2c(C(=O)c2ccccc2)c1C`, in the test with U-937 [3], the viability at 1 µM is greater than 80%.

For `Cc1c(C(=O)/C=C/c2ccc(Br)s2)cc2cccn2c1C(=O)c1ccccc1`, the viability at 1 µM in the test on U-937 [3] was greater than 80%.

As to `Cc1c(C(=O)/C=C/c2ccc(F)cc2)cc2cccn2c1C(=O)c1ccccc1`, the result with U-937 [17] was Active. Also, the viability at 1 µM in the test on U-937 [3] was greater than 80%.

As for `COc1ccc(/C=C/C(=O)c2cc3cccn3c(C(=O)c3ccccc3)c2C)cc1`, in the test with U-937 [3], the viability at 1 µM was greater than 80%.

As usually defined, the IC50 is the concentration at which inhibition is half-maximal.
